Data from patent US11773071B2, “Benzothiazepine compounds and their use as bile acid modulators” (Albireo AB, priority 2019, dated 2023).

Assays:
[1] = biological target: T1, Human LBAT (Homo sapiens, UniProt Q14973); assay: LBAT (h/m) assay, human LBAT-overexpressing cells, 3H-taurocholic acid uptake; type: cell-based; conditions: 0.3 μM 3H-taurocholic acid and 7.5 μM cold taurocholic acid, 20 minutes, read-out: hLBAT IC50
T1 construct: expressed in transfected cells; Geneticin-selected
T1 sequence (Q14973 1-349): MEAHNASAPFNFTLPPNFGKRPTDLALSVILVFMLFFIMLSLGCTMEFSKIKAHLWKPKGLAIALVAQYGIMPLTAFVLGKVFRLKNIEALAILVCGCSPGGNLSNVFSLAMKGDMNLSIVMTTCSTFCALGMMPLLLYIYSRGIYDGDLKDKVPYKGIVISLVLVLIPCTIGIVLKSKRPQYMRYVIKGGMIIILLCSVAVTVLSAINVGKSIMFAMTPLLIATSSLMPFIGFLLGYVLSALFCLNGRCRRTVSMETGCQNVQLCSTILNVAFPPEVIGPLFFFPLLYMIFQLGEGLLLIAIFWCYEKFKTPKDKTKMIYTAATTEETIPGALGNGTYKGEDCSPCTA
Description: LBAT (h/m) Assay Protocol
20,000 cells (Human or Mouse LBAT-overexpressing cells) were seeded in 96-wells plate (Corning CLS3809) in 100 μL MEM-alpha medium (Gibco 12571-063) supplemented with 10% FBS (Gibco 10438026) containing Geneticin (Gibco 10131-027) (1 mg/mL) and incubated at 37° C. in 5% CO2 for 24 hours. After incubation, media was decanted from the wells and cells were washed two times with 300 μL of basal MEM-alpha medium (FBS-free). After decanting basal MEM-alpha medium each time, plates were tapped against paper towel to ensure maximum removal of residual media.
For human LBAT, incubation mix was prepared by adding test inhibitor dilutions (3-fold serial dilution in DMSO (Sigma D2650), 10 points) in MEM-alpha (without FBS) containing 0.3 μM 3H-taurocholic acid (ARC ART-1368) and 7.5 μM cold taurocholic acid (Sigma T4009) (maintaining 0.2% final DMSO concentration). For mouse LBAT, incubation mix was prepared by adding test inhibitor dilutions (3-fold serial dilution in DMSO, 10 points) in MEM-alpha (without FBS) containing 0.3 μM 3H-taurocholic acid and 25 μM cold taurocholic acid maintaining 0.2% final DMSO concentration). 50 μL of incubation mix containing test inhibitors was then added to the wells (in duplicate) and the plates were incubated for 20 minutes in a CO2 incubator at 37° C. After incubation, the reaction was stopped by keeping the plates on ice water mix for 2-3 minutes and then the incubation mix was aspirated completely from the wells. The wells were washed two times with 250 μL of chilled unlabelled 1 mM taurocholic acid dissolved in HEPES (Gibco 15630080)-buffered (10 mM) HBSS (Gibco 14175079) (pH 7.4). The plates were tapped against a paper towel after every wash to ensure maximum removal of blocking buffer. 100 μL of MicroScint-20 (PerkinElmer 6013621) was added to the wells and kept overnight at room temperature before reading the plates in TopCount NXT™ Microplate Scintillation and Luminescence Counter from PerkinElmer under 3H Test protocol (set at 120 seconds reading time per well, with normal plate orientation).
(§1) Preparation of Test Compound Dilutions
(§2) All test compounds were provided in powder form at room temperature. 10 mM DMSO stocks of the test compounds were prepared, aliquoted and stored at −20° C. From the 10 mM DMSO stock of the compounds, a 3-fold serial dilution in DMSO was prepared to get a total of 10 dilutions of the test compounds. 0.5 μL of this dilution in DMSO was added to 250 μL of FBS-free basal media containing 3H-taurocholic acid and cold taurocholic acid to prepare the incubation mixture.

[2] = biological target: T2, Human IBAT (Homo sapiens, UniProt Q12908); assay: IBAT (h/m) assay, human IBAT-overexpressing cells, 3H-taurocholic acid uptake; type: cell-based; conditions: 0.25 μM 3H-taurocholic acid and 5 μM cold taurocholic acid, 20 minutes, read-out: hIBAT IC50
T2 construct: expressed in transfected cells; Puromycin-selected
T2 sequence (Q12908 1-348): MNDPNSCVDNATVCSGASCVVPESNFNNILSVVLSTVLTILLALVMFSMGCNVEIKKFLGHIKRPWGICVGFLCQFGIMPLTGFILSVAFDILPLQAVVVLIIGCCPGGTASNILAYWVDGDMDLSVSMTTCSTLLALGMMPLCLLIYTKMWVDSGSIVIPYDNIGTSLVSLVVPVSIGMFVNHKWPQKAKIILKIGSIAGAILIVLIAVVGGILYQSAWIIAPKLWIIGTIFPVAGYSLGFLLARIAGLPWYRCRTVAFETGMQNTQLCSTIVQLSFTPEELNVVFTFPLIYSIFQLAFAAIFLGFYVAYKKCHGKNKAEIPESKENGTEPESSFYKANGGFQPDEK
Description: IBAT (h/m) Assay Protocol
10,000 cells (Human or Mouse IBAT-overexpressing cells) were seeded in 96-wells plate (Corning CLS3809) in 200 μL MEM-alpha medium (Gibco 12571-063) supplemented with 10% FBS (Gibco 10438026) containing Puromycin (Gibco A1113803) (10 μg/mL) and incubated at 37° C. in 5% CO2 for 48 hours. After incubation, media was decanted from the wells and cells were washed two times with 300 μL of basal MEM-alpha medium (FBS-free). After decanting basal MEM-alpha medium each time, plates were tapped against paper towel to ensure maximum removal of residual media. Test inhibitor dilutions (highest test concentration being 10 μM, 3-fold serial dilution, 10 points) prepared in DMSO (Sigma D2650) were added in incubation mix (maintaining 0.2% final DMSO concentration) containing 0.25 μM 3H-taurocholic acid (ARC ART-1368) and 5 μM of cold taurocholic acid (Sigma T4009). 50 μL of incubation mix containing test inhibitors was then added to the wells (in duplicate) and the plates were incubated for 20 minutes in a CO2 incubator at 37° C. After incubation, the reaction was stopped by keeping the plates on ice water mix for 2-3 minutes and then the incubation mix was aspirated completely from the wells. The wells were washed two times with 250 μL of chilled unlabelled 1 mM taurocholic acid dissolved in HEPES (Gibco 15630080)-buffered (10 mM) HBSS (Gibco 14175079) (pH 7.4). The plates were tapped against a paper towel after every wash to ensure maximum removal of blocking buffer.
100 μL of MicroScint-20 (PerkinElmer 6013621) was added to the wells and kept overnight at room temperature before reading the plates in TopCount NXT™ Microplate Scintillation and Luminescence Counter from PerkinElmer under 3H Test protocol (set at 120 seconds reading time per well).
as §1, §2

| Compound | IC50 [1] | IC50 [2] |
| --- | --- | --- |
| CCCCC1(CC)CN(c2ccccc2)c2cc(Cl)c(OCCC(=O)O)cc2S(=O)(=O)C1 (racemic) [Example 5, 3-((3-Butyl-7-chloro-3-ethyl-1,1-dioxido-5-phenyl-2,3,4,5-tetrahydro-1,5-benzothiazepin-8-yl)oxy)propanoic acid] | 791 nM | 35 nM |
| CCCCC1(CC)CN(c2ccccc2)c2cc(SC)c(OCCC(=O)O)cc2S(=O)(=O)C1 (racemic) [Example 12, 3-((3-Butyl-3-ethyl-7-(methylthio)-1,1-dioxido-5-phenyl-2,3,4,5-tetrahydro-1,5-benzothiazepin-8-yl)oxy)propanoic acid] | 669 nM | 4 nM |
| CCCCC1(CCCC)CN(c2ccccc2)c2cc(SC)c(OCC(C)(O)C(=O)O)cc2S(=O)(=O)C1 (racemic) [Example 19, 3-((3,3-Dibutyl-7-(methylthio)-1,1-dioxido-5-phenyl-2,3,4,5-tetrahydro-1,5-benzothiazepin-8-yl)oxy)-2-hydroxy-2-methylpropanoic acid] | 601 nM | 39 nM |
| CCCCC1(C)CN(c2ccccc2)c2cc(SC)c(OCCC(=O)O)cc2S(=O)(=O)C1 (racemic) [Example 22, 3-((3-butyl-3-methyl-7-(methylthio)-1,1-dioxido-5-phenyl-2,3,4,5-tetrahydro-1,5-benzothiazepin-8-yl)oxy)propanoic acid] | 543 nM | 10 nM |
| CCCCC1(CC)CN(c2ccc(F)cc2)c2cc(SC)c(OCCC(=O)O)cc2S(=O)(=O)C1 (racemic) [Example 37, 3-((3-butyl-3-ethyl-5-(4-fluorophenyl)-7-(methylthio)-1,1-dioxido-2,3,4,5-tetrahydro-1,5-benzothiazepin-8-yl)oxy)propanoic acid] | 297 nM | 3 nM |
| CCCCC1(CC)CN(c2ccccc2)c2cc(OC)c(OCCC(=O)O)cc2S(=O)(=O)C1 (racemic) [Example 43, 3-((3-butyl-3-ethyl-7-methoxy-1,1-dioxido-5-phenyl-2,3,4,5-tetrahydro-1,5-benzothiazepin-8-yl)oxy)propanoic acid] | > 20000 nM | 44 nM |
| CCCCC1(CCCC)CN(c2ccccc2)c2cc(SC)c(OCC(OC)C(=O)O)cc2S(=O)(=O)C1 (racemic) [Example 46, 3-((3,3-Dibutyl-7-(methylthio)-1,1-dioxido-5-phenyl-2,3,4,5-tetrahydro-1,5-benzothiazepin-8-yl)oxy)-2-methoxypropanoic acid] | 1480 nM | 26 nM |
| CCCCC1(C)CN(c2ccc(F)cc2)c2cc(SC)c(OCCC(=O)O)cc2S(=O)(=O)C1 (racemic) [Example 49, 3-((3-Butyl-5-(4-fluorophenyl)-3-methyl-7-(methylthio)-1,1-dioxido-2,3,4,5-tetrahydro-1,5-benzothiazepin-8-yl)oxy)propanoic acid] |  | 10 nM |
| CCCCC1(C)CN(c2ccccc2)c2cc(N(C)C)c(OCCC(=O)O)cc2S(=O)(=O)C1 (single isomer, unassigned) [29, enantiomer 2] | 3310 nM | 57 nM |
| CCCCC1(CC)CN(c2ccccc2)c2cc(Cl)c(OC(C)CC(=O)O)cc2S(=O)(=O)C1 (single isomer, unassigned) [30, diastereomer 2] | 322 nM | 52 nM |
| CCCCC1(CC)CN(c2ccccc2)c2cc(Cl)c(OC(C)CC(=O)O)cc2S(=O)(=O)C1 (single isomer, unassigned) [30, diastereomers 1 and 2] | 247 nM | 36 nM |
| CCCCC1(CC)CN(c2ccccc2)c2cc(Cl)c(OC(C)CC(=O)O)cc2S(=O)(=O)C1 (single isomer, unassigned) [30, diastereomers 3 and 4] | 818 nM | 263 nM |
| CCCCC1(C)CN(c2ccccc2)c2cc(SC)c(OCC(O)C(=O)O)cc2S(=O)(=O)C1 (single isomer, unassigned) [32, diastereomer 2] | 4080 nM | 35 nM |
| CCCCC1(C)CN(c2ccccc2)c2cc(SC)c(OCC(C)(O)C(=O)O)cc2S(=O)(=O)C1 (single isomer, unassigned) [33, diastereomer 1] | 5940 nM | 123 nM |
| CCCCC1(C)CN(c2ccccc2)c2cc(SC)c(OCC(C)(O)C(=O)O)cc2S(=O)(=O)C1 (single isomer, unassigned) [33, diastereomer 4] | 575 nM |  |
| CCCCC1(CC)CN(c2ccccc2)c2cc(SC)c(OCC(N)C(=O)O)cc2S(=O)(=O)C1 (single isomer, unassigned) [36, diastereomer 1] |  | 76 nM |
| CCCCC1(CC)CN(c2ccccc2)c2cc(SC)c(OCC(N)C(=O)O)cc2S(=O)(=O)C1 (single isomer, unassigned) [36, diastereomer 2] |  | 5 nM |
| CCCCC1(CC)CN(c2ccccc2)c2cc(N(C)C)c(OCCC(=O)O)cc2S(=O)(=O)C1 (single isomer, unassigned) [Example 18, 3-((3-butyl-7-(dimethylamino)-3-ethyl-1,1-dioxido-5-phenyl-2,3,4,5-tetrahydro-1,5-benzothiazepin-8-yl)oxy)propanoic acid] |  | 52 nM |
| CCCC1(CC)CN(c2ccccc2)c2cc(SC)c(OCCC(=O)O)cc2S(=O)(=O)C1 (stereo not shown) [Example 27, 3-((3-ethyl-7-(methylthio)-1,1-dioxido-5-phenyl-3-propyl-2,3,4,5-tetrahydro-1,5-benzothiazepin-8-yl)oxy)propanoic acid] |  | 62 nM |
| CCCCC1(CC)CN(c2ccccc2)c2cc(SC)c(OCC(N)C(=O)O)cc2S(=O)(=O)C1 (stereo not shown) [Example 28, O-(3-butyl-3-ethyl-7-(methylthio)-1,1-dioxido-5-phenyl-2,3,4,5-tetrahydro-1,5-benzothiazepin-8-yl)serine] |  | 45 nM |
| CCCCC1(C)CN(c2ccc(F)cc2)c2cc(SC)c(OCC(O)C(=O)O)cc2S(=O)(=O)C1 (stereo not shown) [Example 51, 3-((3-Butyl-5-(4-fluorophenyl)-3-methyl-7-(methylthio)-1,1-dioxido-2,3,4,5-tetrahydro-1,5-benzothiazepin-8-yl)oxy)-2-hydroxypropanoic acid] |  | 5 nM |
